Format in all cases: biochemical
For experiment [1], the target named is T1, EHMT1 (h) (Homo sapiens, UniProt Q9H9B1).
T1 sequence (Q9H9B1 1-1298): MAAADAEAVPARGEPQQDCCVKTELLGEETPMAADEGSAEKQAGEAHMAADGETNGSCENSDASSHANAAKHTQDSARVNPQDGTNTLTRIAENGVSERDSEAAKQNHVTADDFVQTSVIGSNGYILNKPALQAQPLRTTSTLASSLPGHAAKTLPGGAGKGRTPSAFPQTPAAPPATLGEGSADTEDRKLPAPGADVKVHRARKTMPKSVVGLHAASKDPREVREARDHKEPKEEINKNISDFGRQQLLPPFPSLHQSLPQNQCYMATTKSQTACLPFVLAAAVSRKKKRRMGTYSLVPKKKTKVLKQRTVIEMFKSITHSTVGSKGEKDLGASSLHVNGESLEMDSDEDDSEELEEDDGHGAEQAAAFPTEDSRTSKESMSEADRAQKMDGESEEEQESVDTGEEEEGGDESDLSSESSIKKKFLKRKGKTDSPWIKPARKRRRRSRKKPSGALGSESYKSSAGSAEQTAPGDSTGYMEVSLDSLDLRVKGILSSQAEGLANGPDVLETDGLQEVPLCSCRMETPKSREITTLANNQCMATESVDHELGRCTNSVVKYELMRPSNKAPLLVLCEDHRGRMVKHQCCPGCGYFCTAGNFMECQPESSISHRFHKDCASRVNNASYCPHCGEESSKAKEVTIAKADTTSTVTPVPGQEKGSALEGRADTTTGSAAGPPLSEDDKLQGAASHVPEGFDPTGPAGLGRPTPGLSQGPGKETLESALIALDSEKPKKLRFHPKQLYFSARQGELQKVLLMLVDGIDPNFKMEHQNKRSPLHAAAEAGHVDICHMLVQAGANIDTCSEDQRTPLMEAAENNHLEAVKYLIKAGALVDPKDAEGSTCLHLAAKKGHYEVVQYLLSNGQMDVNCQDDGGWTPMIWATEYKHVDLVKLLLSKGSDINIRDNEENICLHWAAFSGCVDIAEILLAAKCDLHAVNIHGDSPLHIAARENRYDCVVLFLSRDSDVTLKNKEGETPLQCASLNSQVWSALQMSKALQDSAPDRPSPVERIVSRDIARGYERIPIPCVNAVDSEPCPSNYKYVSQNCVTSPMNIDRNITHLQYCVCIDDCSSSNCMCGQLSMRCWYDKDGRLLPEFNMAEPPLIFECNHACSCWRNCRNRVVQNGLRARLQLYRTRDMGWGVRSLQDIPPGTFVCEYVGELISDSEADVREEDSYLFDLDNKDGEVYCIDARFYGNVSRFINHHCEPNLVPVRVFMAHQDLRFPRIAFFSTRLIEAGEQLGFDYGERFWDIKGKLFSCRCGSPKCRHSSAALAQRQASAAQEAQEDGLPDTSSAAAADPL
In words: Epigenetic enzyme assay, Methyltransferases (MTs). The note with it: for inhibition at 10 µM: read-out: % Inhibition of Control Values.

The target of experiment [2] is T2, G9a (h) (Homo sapiens, UniProt Q96KQ7).
T2 sequence (Q96KQ7 1-1210): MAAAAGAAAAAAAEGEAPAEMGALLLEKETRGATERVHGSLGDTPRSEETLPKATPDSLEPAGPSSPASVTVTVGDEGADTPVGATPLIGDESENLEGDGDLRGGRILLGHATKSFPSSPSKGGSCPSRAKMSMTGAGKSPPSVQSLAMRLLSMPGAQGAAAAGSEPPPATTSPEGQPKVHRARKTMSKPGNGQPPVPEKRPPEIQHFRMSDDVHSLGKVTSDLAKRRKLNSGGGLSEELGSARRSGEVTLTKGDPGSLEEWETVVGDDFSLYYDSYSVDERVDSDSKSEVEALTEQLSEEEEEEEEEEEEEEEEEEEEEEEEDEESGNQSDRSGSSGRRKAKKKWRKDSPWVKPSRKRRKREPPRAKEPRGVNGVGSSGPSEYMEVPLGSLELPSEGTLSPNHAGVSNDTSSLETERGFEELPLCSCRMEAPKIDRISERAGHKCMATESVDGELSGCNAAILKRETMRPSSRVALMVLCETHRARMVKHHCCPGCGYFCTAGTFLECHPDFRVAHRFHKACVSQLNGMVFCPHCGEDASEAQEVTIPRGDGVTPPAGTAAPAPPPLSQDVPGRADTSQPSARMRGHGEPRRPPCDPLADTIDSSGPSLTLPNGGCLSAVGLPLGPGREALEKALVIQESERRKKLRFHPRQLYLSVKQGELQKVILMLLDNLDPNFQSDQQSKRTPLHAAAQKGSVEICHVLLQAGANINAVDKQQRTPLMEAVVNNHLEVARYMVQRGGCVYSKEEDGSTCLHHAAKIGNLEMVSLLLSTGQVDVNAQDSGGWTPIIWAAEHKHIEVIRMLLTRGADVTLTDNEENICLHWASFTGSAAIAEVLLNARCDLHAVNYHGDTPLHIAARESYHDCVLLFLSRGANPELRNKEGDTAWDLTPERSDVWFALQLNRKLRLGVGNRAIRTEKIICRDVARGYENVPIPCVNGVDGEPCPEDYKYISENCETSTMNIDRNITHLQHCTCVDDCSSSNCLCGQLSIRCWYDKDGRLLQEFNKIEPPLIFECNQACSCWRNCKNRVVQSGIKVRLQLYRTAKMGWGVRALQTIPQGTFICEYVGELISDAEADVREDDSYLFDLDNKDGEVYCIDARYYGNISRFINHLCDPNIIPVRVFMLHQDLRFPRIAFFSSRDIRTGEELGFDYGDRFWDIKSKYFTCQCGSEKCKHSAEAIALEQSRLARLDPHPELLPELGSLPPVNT
The experiment is described as follows: Epigenetic enzyme assay, Methyltransferases (MTs). The note with it: for % Inhibition of Control Values / inhibition at 10 µM: 10 μM; for inhibition at 10 µM: read-out: % Inhibition of Control Values; for IC50: Table 11, inhibition/concentration-response curve.

Experiment [3] addresses PIM1(h) (histone H3 full length substrate) (Homo sapiens, UniProt P11309). The experiment is described as follows: Epigenetic enzyme assay, Kinases. The note with it: read-out: % Inhibition of Control Values.

PIM1(h) (histone H3 full length substrate), sequence (P11309 whole entry): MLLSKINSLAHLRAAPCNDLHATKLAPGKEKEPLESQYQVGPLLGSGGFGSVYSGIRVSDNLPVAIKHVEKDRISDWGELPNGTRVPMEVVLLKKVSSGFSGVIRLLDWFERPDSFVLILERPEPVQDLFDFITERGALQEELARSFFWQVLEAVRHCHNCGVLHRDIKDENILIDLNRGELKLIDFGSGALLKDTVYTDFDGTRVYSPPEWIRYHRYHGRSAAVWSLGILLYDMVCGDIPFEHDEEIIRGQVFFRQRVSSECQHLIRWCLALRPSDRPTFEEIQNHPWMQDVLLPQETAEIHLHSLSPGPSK

In the case of `CC(C)=CCC[C@H](CO)[C@@H]1CC[C@@H](C)c2c1cc(C)c(O)c2O` [Compound 1, 7,8,18-trihydroxyserrulat-14-ene], in experiment [1], the inhibition at 10 µM was 13%. In experiment [2], the “% Inhibition of Control Values” is “strong inhibitor”, the inhibition at 10 µM came out at 86% and the IC50 is 11 µM. Moreover, the inhibition at 10 µM in experiment [3] came to 22%.

Consider `CC(C)=CCC[C@@H]1COc2c(C)cc(O)c3c2[C@H]1CC[C@H]3C` [Compound 3, 5,18-epoxy-8-hydroxyserrulat-14-ene], for which the inhibition at 10 µM in experiment [1] worked out at 63%; in experiment [2], 49%; in experiment [3], 5%. The “% Inhibition of Control Values” in experiment [2] was “weaker”.

For the compound `CC(C)=CCC[C@@H]1C(O)Oc2c(C)cc(O)c3c2[C@H]1CC[C@H]3C` (stereo partly drawn) [Compound 2, 5,18-epoxyserrulat-14-en-8,18-diol], the inhibition at 10 µM in experiment [1] is 9%. Moreover, in experiment [2], the “% Inhibition of Control Values” is reported as “weaker”, the inhibition at 10 µM amounted to 64% and half-maximal inhibition (IC50) required 5.4 µM. The inhibition at 10 µM in experiment [3] stood at 11%.

Consider `Nc1ncnc2c1ncn2[C@@H]1O[C@H](CSCC[C@H](N)C(=O)O)[C@@H](O)[C@H]1O` [SAH], for which the IC50 in experiment [1] (read-out: Reference IC50) stood at 180 nM.

Source of the values: patent US11331299B2, “Medicinal use of serrulatane diterpenes” (The University of Sydney, priority 2016, dated 2022).
